Reference: patent publication US8183001B2 (priority 2006, dated 2012)
Read-outs that look alike come from different tables or passages of the source.

How the values were obtained:
[1] = biological target: T1, UNC-49B homomer (GABA receptor) (Caenorhabditis elegans, UniProt G5ECD3); assay: Pentobarbital enhancement of UNC-49B homomer (FIG. 14B, allosteric regulation of UNC-49); assay type: cell-based
T1 construct: homopentamer; two-electrode voltage clamp
Protocol: (§1) Like their mammalian homologs, UNC-49 subunits contain a large extracellular amino terminal region, and four transmembrane domains labeled M1-M4.
(§2) Electrophysiology: Plasmids containing wild-type and mutagenized GABAA receptor subunits were linearized and transcribed in vitro using T3 RNA polymerase (mMessage mMachine T3 kit, Ambion, Austin Tex.). UNC-49B mRNA was injected into Xenopus laevis oocytes at 0.5 μg/μl either alone, or in a mixture with 0.5 μg/μl UNC-49C. […] The injection volume ranged between 27.6 nl to 50.6 nl. […] Cells were voltage clamped at −60 mV. All recordings were performed at room temperature.

[2] = test system: mammalian GABAA receptor with α1 subunit XY segment replaced with UNC-49B XY sequence; assay: Neurosteroid positive modulation, subunits expressed in Xenopus oocytes; assay type: cell-based; conditions: altered receptor compared to the wild-type receptor
Protocol: It has been shown that one variant of the XY segment conferred high PS sensitivity (the UNC-49C sequence) (Example 1), while another variant of the XY segment conferred low PS sensitivity (the UNC-49B sequence). Subunits of mammalian GABAA receptors also contain an XY segment. It was tested whether neurosteroid sensitivity of mammalian receptors similarly depended on their XY segments. The mammalian XY segment (within the α1 subunit) was replaced with the low-sensitivity UNC-49B XY sequence variant. […] Both positive and negative modulation of GABAA receptors are therapeutically beneficial.

[3] = biological target: T2, UNC-49B/C heteromer (GABA receptor) (Caenorhabditis elegans, UniProt G5ECD3+G5EE10); assay: Picrotoxin inhibition of GABA-evoked currents, UNC-49B/C heteromer (FIG. 14A; two-electrode voltage clamp, Xenopus oocytes); assay type: cell-based; conditions: co-application of GABA and picrotoxin
T2 construct: two-electrode voltage clamp
T2 sequence (G5ECD3 23-506): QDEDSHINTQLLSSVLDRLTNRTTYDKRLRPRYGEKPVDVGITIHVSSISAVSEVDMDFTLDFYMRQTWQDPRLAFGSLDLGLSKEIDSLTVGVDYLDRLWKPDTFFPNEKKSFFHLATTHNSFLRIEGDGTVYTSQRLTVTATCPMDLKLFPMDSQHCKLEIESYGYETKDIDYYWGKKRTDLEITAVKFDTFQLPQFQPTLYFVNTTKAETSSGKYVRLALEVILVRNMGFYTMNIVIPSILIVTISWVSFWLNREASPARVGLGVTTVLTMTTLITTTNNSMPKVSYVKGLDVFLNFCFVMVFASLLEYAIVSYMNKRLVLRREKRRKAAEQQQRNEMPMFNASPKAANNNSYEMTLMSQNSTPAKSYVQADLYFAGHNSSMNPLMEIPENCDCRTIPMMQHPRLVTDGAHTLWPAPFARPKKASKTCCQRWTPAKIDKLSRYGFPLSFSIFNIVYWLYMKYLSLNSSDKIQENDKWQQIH
T2 sequence (G5EE10 entry or part of it): as the sequence (G5ECD3 23-506) above
Protocol: as §1, §2

[4] = biological target: T1, UNC-49B homomer (GABA receptor); assay: Picrotoxin inhibition of GABA-evoked currents, UNC-49B homomer (FIG. 14A; two-electrode voltage clamp, Xenopus oocytes); assay type: cell-based; conditions: co-application of GABA and picrotoxin
Protocol: as §1, §2

UNC-49B homomer [5] = biological target: T3, UNC-49B homomer (Caenorhabditis elegans, UniProt G5ECD3); assay type: cell-based, C. elegans
T3 sequence (G5ECD3 entry or part of it): as the sequence (G5ECD3 23-506) above
Protocol: as §2

B-β3 chimera = assay: Pregnanolone response of B-β3 chimera; assay type: cell-based
From the text: A) Structure of the B-β3 chimera. B) The B-β3 chimera is enhanced by pregnanolone.

UNC-49B homomer [6] = biological target: T3, UNC-49B homomer; conditions: UNC-49B homomers; Bamber et al., 2003; cited from earlier work
UNC-49B/C heteromer [7] = biological target: T4, UNC-49B/C heteromer (Caenorhabditis elegans, UniProt G5ECD3+G5EE10); conditions: UNC-49B/C heteromers; Bamber et al., 2003; cited from earlier work
T4 sequence (G5EE10 entry or part of it): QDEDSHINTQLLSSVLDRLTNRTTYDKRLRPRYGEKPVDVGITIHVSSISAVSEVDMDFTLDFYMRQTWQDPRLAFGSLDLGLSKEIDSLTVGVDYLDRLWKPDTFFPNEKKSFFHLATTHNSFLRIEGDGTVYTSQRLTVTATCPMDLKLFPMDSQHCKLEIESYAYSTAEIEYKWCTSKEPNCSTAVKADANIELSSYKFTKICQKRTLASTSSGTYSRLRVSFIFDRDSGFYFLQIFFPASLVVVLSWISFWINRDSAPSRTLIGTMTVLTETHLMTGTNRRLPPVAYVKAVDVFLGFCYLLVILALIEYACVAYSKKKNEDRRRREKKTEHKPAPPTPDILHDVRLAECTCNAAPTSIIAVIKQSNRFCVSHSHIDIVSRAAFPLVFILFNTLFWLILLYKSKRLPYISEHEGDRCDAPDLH
T4 sequence (G5ECD3 entry or part of it): as the sequence (G5ECD3 23-506) above

UNC-49B-PS7 = assay type: cell-based, C. elegans; conditions: UNC-49B-PS7 versus UNC-49B/C heteromer; at EC50 GABA
Protocol: as §2

Y chimera = Y chimera (Caenorhabditis elegans, UniProt G5ECD3, I265S/I267V/I270L/N259Q/N305R/T269V/V261F/V273I); assay type: cell-based, C. elegans; conditions: Y chimera compared with wild-type UNC-49B and QF-R subunit; at EC50 GABA
Sequence of Y chimera (G5ECD3 23-506, stated change not applied): as the sequence (G5ECD3 23-506) above
Protocol: as §2

UNC-49B/C heteromer [8] = biological target: T4, UNC-49B/C heteromer; assay type: cell-based; conditions: UNC-49B/C heteromers
Protocol: as §2

QF-R = QF-R (Caenorhabditis elegans, UniProt G5ECD3, N259Q/N305R/V261F); assay type: cell-based, C. elegans; conditions: QF-R subunit compared with wild-type UNC-49B and Y chimera; at EC50 GABA
Sequence of QF-R (G5ECD3 23-506, stated change not applied): as the sequence (G5ECD3 23-506) above
Protocol: as §2
The conserved residues were tested in the UNC-49C M1 domain in a similar way. […] To test the importance of these conserved residues, they were substituted into an UNC-49B subunit with the linker mutation N305R to create the ‘QF-R’ subunit (FIG. 3c).

T1 sequence (G5ECD3 23-506): as above

CCCC(C)C1(CC)C(=O)NC(=O)NC1=O (centres unmarked) [PB, pentobarbital]
EC50 [1]: 369 ± 23.1 µM

C[C@]12CC[C@@H](O)C[C@@H]1CC[C@@H]1[C@@H]2CC[C@]2(C)[C@@H](C(=O)CO)CC[C@@H]12 [5α-3α-THDOC]
positive modulation by neurosteroid [2]: greatly-reduced positive modulation

picrotoxin [listing 1 of 2 here]
IC50 [3]: 166 ± 42 µM | IC50 [4]: 0.89 ± 0.15 µM

CC(=O)[C@H]1CC[C@H]2[C@@H]3CC[C@@H]4C[C@H](O)CC[C@]4(C)[C@H]3CC[C@]12C [pregnanolone]
direct activation by pregnanolone (UNC-49B homomer [5]; UNC-49B homomer): fails to directly activate | pregnanolone modulation (UNC-49B homomer [5]; UNC-49B homomer): inhibits, rather than enhances | direct activation by pregnanolone (B-β3 chimera): directly activated | pregnanolone modulation (B-β3 chimera): enhanced | pregnanolone modulation (UNC-49B homomer [6]): inhibited | pregnanolone modulation (UNC-49B/C heteromer [7]): inhibited

picrotoxin [listing 2 of 2 here]
picrotoxin inhibition (UNC-49B homomer [5]; UNC-49B homomers): strongly inhibits | picrotoxin sensitivity (UNC-49B homomer [5]; wild-type UNC-49B compared with QF-R subunit and Y chimera (UNC-49B curve from Bamber et al. 2003)): identical | fold difference in picrotoxin sensitivity (UNC-49B-PS7): 50 fold | picrotoxin sensitivity (Y chimera): identical | picrotoxin inhibition (UNC-49B/C heteromer [8]): only weakly inhibits | picrotoxin sensitivity (QF-R): identical

CCCC(C)C1(CC)C(=O)NC(=O)NC1=O (centres unmarked) [Pentobarbital]
pentobarbital enhancement (UNC-49B homomer [5]): more strongly than UNC-49B/C heteromers
